The conditions of series [1]: cited from earlier work.
Another series has as its system weeds. Briefly: germination-preventing action in treated soil. Type of series: in vivo. Conditions: minimum amounts of 4 g per square meter of soil.

These results are taken from patent publication US8901037B2, “Composition having a germination-preventing activity, processes for obtaining said compositions and use thereof” (Isagro S.p.A., priority 2006, dated 2014).

In the case of `CN=C=S` [methyl isothiocyanate, reference compound], in series [1], the “vapour pressure at 25° C.” value is listed as 19 mmHg.
Take `C=CCN=C=S` [allyl isothiocyanate, Allyl isothiocyanate]: the germination-preventing action result in the series with weeds is recorded as “marked germination-preventing action”. For the same compound, the “vapour pressure at 25° C.” value in series [1] is reported as 5 mmHg.
